What was measured:
[1] = system: ERK; assay: Western blot of phosphorylated ERK in THP-1 induced by P. gingivalis; format: cell-based, Human; conditions: 10 μM and 20 μM, induced by P. gingivalis for 30 mins
Method: (§1) To analyze the effect of the M. charantia extract on phosphorylation of MAPK proteins, THP-1 cell line cultured by the method described in Example 3 (2×10^6 cells/mL) was inoculated in 6-cm petridishes. Every 200 μL of cell culture was added 800 μL of fresh media containing DMSO with P. gingivalis (MOI=10), different concentrations of samples from Examples 1 and 2 or luteolin ([…]) and then co-cultured in a incubator at 37° C. in 5% of CO2 for 30 mins. Next, the cells were collected and centrifuged to remove the supernatant. After adding phosphate buffer solution (PBS), the collected cells were shook and washed repeatedly for 3 times. Then 100 μL of 1× lysis buffer was added in. The mixture was centrifuged at 12,000 rpm and 4° C. for 15 mins, and the supernatant was collected. The protein was quantified to the identical concentration. After protein electrophoresis was conducted, Western blot was conducted to analyze the level of phosphorylated ERK, JNK and p38 (i.e. p-ERK, p-JNK and p-p38).

[2] = system: IL-8; assay: Anti-inflammatory activity assay, IL-8 ELISA, THP-1 co-cultured with P. gingivalis; format: cell-based, Human; conditions: for inhibiting the expression of IL-8 induced by P. gingivalis: 1 μM to 5 μM, dose-dependent
Method: (§2) P. gingivalis (ATCC 33277/BCRC 14417) purchased from Bioresource Collection and Research Center of Food Industry Research and Development Institute in Hsinchu. P. gingivalis was incubated with TSB medium in an anaerobic incubator at 37° C. in an atmosphere of 86% of N2, 10% of CO2 and 4% of H2. The TSB medium comprises 15 g of Tryptic Soy broth (Becton, Dicksinson and company, U.S.A.), 2.5 g of yeast extract, 0.5 mL of Hemin and 0.1 mL of Vitamin K dissolved in 500 mL of deionized H2O.
(§3) THP-1 cell line (2×10^6 cells/mL) cultured by the method described in Example 3 was placed into a 96-well plate, and then 100 μL of RPMI medium without P. gingivalis was added or 0.1% dimethyl sulfoxide (DMSO) containing P. gingivalis with its multiplicity of infection (MOI) of 10 was added as negative controls. Different concentrations of samples from Examples 1 and 2 were added or luteolin (10 μM) was added as positive control. After co-culturing in an incubator at 37° C. in 5% of CO2 for 24 hours, the supernatants were collected. Then, the levels of IL-6 and IL-8 were analyzed by commercial ELISA kits for IL-6 and IL-8 (Invitrogen).
(§4) The term “MOI” is multiplicity of infection which means the number of the bacteria infecting each cell (the number of bacteria/the number of cells). For example, MOI=1 refers to every cell was infected by one bacterial colony.

[3] = system: IL-6; assay: Anti-inflammatory activity assay, IL-6 ELISA, THP-1 co-cultured with P. gingivalis; format: cell-based, Human; conditions: for inhibiting the expression of IL-6 induced by P. gingivalis: 1 μM to 5 μM, dose-dependent
Method: as §2, §3, §4

[4] = system: iNOS; assay: Periodontitis mouse model, iNOS mRNA in gum tissue; format: in vivo, C57BL/6 mice; conditions: injected into gum tissue with P. gingivalis, day 14
[5] = system: p-ERK, p-JNK and p-p38; assay: Western blot of phosphorylated MAPK proteins in THP-1 induced by P. gingivalis; format: cell-based, Human; conditions: 1 μM to 5 μM, induced by P. gingivalis for 30 mins, dose-dependent
Method: as §1

[6] = system: IL-6; assay: Periodontitis mouse model, IL-6 mRNA in gum tissue; format: in vivo, C57BL/6 mice; conditions: 5 μg injected into gum tissue, day 14
Method: (§5) To assess the effect of kuguacin on anti-inflammation in vivo, 6-week old C57BL/6 male mice were used in the present embodiment. The mice were purchased from Laboratory Animal Center of National Taiwan University, and fed with commercial chow diet and drinking water. After free access of food for 7 days, the mice were grouped for experiments, five animals for each group.
(§6) The concentration of P. gingivalis was adjusted to 1×10^9 CFU/mL by steriled PBS, then centrifuged at 10,000 rpm for 5 min. After removing the supernatant, the pellet was heated in water bath at 80° C. for 30 mins.
(§7) According to the method provided in the reference by Molon et al. to establish animal experiment model. Heat-killed P. gingivalis was injected into the gum tissue of C57BL/6 mice to cause inflammation. The mice were anesthetized by ethylether. Samples and bacteria solution were withdrawn using 0.3-mL insulin syringe needle. 10 μL of bacteria and samples were injected into the gum tissue of the mice. If blisters appeared, the injection was successful. […]
(§8) After sacrificing the mice at the 14th day of the experiment, the gums of lower jaw of the mice were sampled and the gene expressions of COX-2, IL-6 and TNF-α therein were analyzed.

[7] = system: COX-2; assay: Periodontitis mouse model, COX-2 mRNA in gum tissue; format: in vivo, C57BL/6 mice; conditions: 5 μg injected into gum tissue, day 14
Method: as §5, §6, §7, §8

[8] = system: TNF-α; assay: Periodontitis mouse model, TNF-α mRNA in gum tissue; format: in vivo, C57BL/6 mice; conditions: 5 μg injected into gum tissue, day 14
Method: as §5, §6, §7, §8

Row | SMILES | inhibiting the phosphorylation of ERK [1] | inhibiting the expression of IL-8 by THP-1 cell line ([2]; 5 μM to 20 μM) | inhibiting the expression of IL-6 by THP-1 cell line ([3]; 5 μM to 20 μM) | inhibiting the expression of IL-8 induced by P. gingivalis [2] | inhibiting the expression of IL-6 induced by P. gingivalis [3] | mRNA expression of iNOS in gum tissue [4] | phosphorylation of the signal transduction proteins (p-ERK, p-JNK, p-p38) in THP-1 cells [5] | mRNA expression of IL-6 in gum tissue, compared to group induced by P. gingivalis as 100% [6] [%] | mRNA expression of COX-2 in gum tissue, compared to group induced by P. gingivalis as 100% [7] [%] | mRNA expression of TNF-α in gum tissue, compared to group induced by P. gingivalis as 100% [8] [%]
1 | C=C(C)/C=C/C[C@@H](C)[C@H]1CC[C@@]2(C)[C@@H]3C=C[C@@]45O[C@@H](O)[C@]3(CC[C@]12C)[C@@H]4CC[C@H](O)C5(C)C [fraction 532, 5β,19-epoxycucurbita-6,23(E),25(26)-triene-3β,19(R)-diol] | effective in inhibiting | effective on inhibiting | effective on inhibiting | – | – | – | – | – | – | –
2 | CC(CC=CC(C)(C)O)C1CCC2(C)C3C=CC45OC(O)C3(CCC12C)C4CCC(O)C5(C)C (centres unmarked) [fraction 5211, 5,19-epoxycucurbita-6,23-diene-3,19,25-triol] | – | – | – | effective on inhibiting | effective on inhibiting | increase | reduced | 34 | 31 | 40
3 | C[C@H](C/C=C/C(C)(C)O)[C@H]1CC[C@@]2(C)[C@@H]3[C@@H](O)C=C4[C@@H](CC[C@H](O)C4(C)C)[C@]3(C=O)CC[C@]12C [fraction 5212, 3,7,25-trihydroxycucurbita-5,23-dien-19-al] | – | – | – | effective on inhibiting | effective on inhibiting | increase | reduced | 67 | 49 | 67

— patent US20170152285A1, “EXTRACTING METHOD OF KUGUACIN, PHARMACEUTICAL COMPOSITION COMPRISING THE KUGUACIN AND USE THEREOF” (priority 2015, published 2017)
